Measurements: ChEMBL document CHEMBL5375956, “Discovery of Pyrazolo[1,5-a]pyrimidine Derivative as a Novel and Selective ALKBH5 Inhibitor for the Treatment of AML” (J Med Chem, 2023)
The source made the active and inactive calls. The calls are words filed in the database; no cut-off is given here.

How the values were obtained:
[1] = target: T1, RNA demethylase ALKBH5 (Homo sapiens, UniProt Q6P6C2); assay: Inhibition of ALKBH5 (66 to 292 residues)(unknown origin) expressed in Escherichia coli BL21(DE3) using 5'-ATTGTCA(m6A)CAGCAGA-FAM-3' as substrate incubated for 30 mins by FP assay
Target sequence in this assay (Q6P6C2 whole entry, the tested form may be a part): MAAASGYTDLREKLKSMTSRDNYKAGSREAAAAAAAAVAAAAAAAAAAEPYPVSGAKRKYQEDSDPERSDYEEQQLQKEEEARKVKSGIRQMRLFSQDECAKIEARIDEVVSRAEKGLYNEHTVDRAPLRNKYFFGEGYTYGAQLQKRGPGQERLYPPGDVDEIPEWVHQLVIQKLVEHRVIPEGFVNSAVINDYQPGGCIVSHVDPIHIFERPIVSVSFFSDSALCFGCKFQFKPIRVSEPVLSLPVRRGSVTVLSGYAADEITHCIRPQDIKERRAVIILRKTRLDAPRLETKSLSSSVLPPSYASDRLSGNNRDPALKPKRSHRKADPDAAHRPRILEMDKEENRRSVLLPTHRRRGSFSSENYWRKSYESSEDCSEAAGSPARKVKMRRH

[2] = system: MV4-11; assay: Induction of apoptosis in human MV4-11 cells assessed as early apoptosis cells at 10 uM incubated for 48 hrs by Annexin V-FITC/PI staining based flow cytometry (reference value: 1.24 %); format: functional
[3] = system: MV4-11; assay: Induction of apoptosis in human MV4-11 cells assessed as necrotic cells at 5 uM incubated for 48 hrs by Annexin V-FITC/PI staining based flow cytometry (reference value: 1.81 %); format: functional
[4] = system: HEK293; assay: Effect on c-Myc mRNA level in HEK293 cells at 5 to 10 uM incubated for 48 hrs by qRT-PCR analysis; format: functional, cell-based; settings: Homo sapiens, dose 5-10 µM
[5] = system: MV4-11; assay: Antitumor activity against human MV4-11 cells xenografted in nude mouse assessed as reduction in tumor weight at 10 to 40 mg/kg, ip treated every day for 14 days; format: functional, organism-based; settings: dose 10-40 mg/kg, time 14.0 day
[6] = Toxicity in nude mouse xenografted with human MV4-11 cells assessed as liver weight change at 10 to 40 mg/kg, ip treated every day for 14 days; format: organism-based; settings: in vivo, 336 h, dose 10-40 mg/kg, time 14 day
[7] = Half life in Sprague-Dawley rat at 2 mg/kg, iv measured for 1 to 1440 mins by LC-MS/MS analysis; format: ADME, organism-based; settings: in vivo, time 1-1440 min
[8] = system: MV4-11; assay: Induction of apoptosis in human MV4-11 cells assessed as late apoptosis cells at 10 uM incubated for 48 hrs by Annexin V-FITC/PI staining based flow cytometry (reference value: 7.17 %); format: functional
[9] = Oral bioavailability in Sprague-Dawley rat at 10 mg/kg measured for 1 to 1440 mins by LC-MS/MS analysis; format: ADME, organism-based; settings: in vivo, time 1-1440 min
[10] = Apparent oral clearance in Sprague-Dawley rat at 2 mg/kg, iv measured for 1 to 1440 mins by LC-MS/MS analysis; format: ADME, organism-based; settings: in vivo, time 1-1440 min
[11] = Toxicity in nude mouse xenografted with human MV4-11 cells assessed as heart damage at 10 to 40 mg/kg, ip treated every day for 14 days by H and E staining based analysis; format: organism-based; settings: in vivo, 336 h, dose 10-40 mg/kg, time 14 day
[12] = Apparent oral clearance in Sprague-Dawley rat at 10 mg/kg, po measured for 1 to 1440 mins by LC-MS/MS analysis; format: ADME, organism-based; settings: in vivo, time 1-1440 min
[13] = Metabolic stability in human liver microsomes assessed as clearance measured upto 240 mins by LC-MS/MS analysis; format: ADME, Microsome; settings: read-out: CLH
[14] = system: HEK293; assay: Antiproliferative activity against HEK293 cells assessed as inhibition of cell proliferation incubated for 72 hrs by Cell Titer Luminescence assay; format: functional, cell-based; settings: Homo sapiens, HEK293, 72 h
[15] = Toxicity in nude mouse xenografted with human MV4-11 cells assessed as heart weight change at 10 to 40 mg/kg, ip treated every day for 14 days; format: organism-based; settings: in vivo, 336 h, dose 10-40 mg/kg, time 14 day
[16] = system: MV4-11; assay: Induction of apoptosis in human MV4-11 cells assessed as viable cells at 10 uM incubated for 48 hrs by Annexin V-FITC/PI staining based flow cytometry (reference value: 89.8 %); format: functional; settings: read-out: Activity
[17] = Apparent volume of distribution during terminal phase in Sprague-Dawley rat at 10 mg/kg, po measured for 1 to 1440 mins by LC-MS/MS analysis; format: ADME, organism-based; settings: in vivo, time 1-1440 min, read-out: Vz/F
[18] = Toxicity in nude mouse xenografted with human MV4-11 cells assessed as kidney weight change at 10 to 40 mg/kg, ip treated every day for 14 days; format: organism-based; settings: in vivo, 336 h, dose 10-40 mg/kg, time 14 day
[19] = system: HUVEC; assay: Antiproliferative activity against HUVEC cells assessed as inhibition of cell proliferation incubated for 72 hrs by Cell Titer Luminescence assay; format: functional, cell-based; settings: Homo sapiens
[20] = Toxicity in nude mouse xenografted with human MV4-11 cells assessed as lung weight change at 10 to 40 mg/kg, ip treated every day for 14 days; format: organism-based; settings: in vivo, 336 h, dose 10-40 mg/kg, time 14 day
[21] = Cmax in Sprague-Dawley rat at 10 mg/kg, po measured for 1 to 1440 mins by LC-MS/MS analysis; format: ADME, organism-based; settings: in vivo
[22] = Metabolic stability in rat liver microsomes assessed as half life measured upto 240 mins by LC-MS/MS analysis; format: ADME, Microsome
[23] = target: T1, RNA demethylase ALKBH5; assay: Inhibition of ALKBH5 in human MOLM-13 cells assessed as increase in m6A RNA level by colorimetric assay; format: cell-based; settings: dose 10-20 µM
Target sequence in this assay (Q6P6C2 2-394 limits assumed): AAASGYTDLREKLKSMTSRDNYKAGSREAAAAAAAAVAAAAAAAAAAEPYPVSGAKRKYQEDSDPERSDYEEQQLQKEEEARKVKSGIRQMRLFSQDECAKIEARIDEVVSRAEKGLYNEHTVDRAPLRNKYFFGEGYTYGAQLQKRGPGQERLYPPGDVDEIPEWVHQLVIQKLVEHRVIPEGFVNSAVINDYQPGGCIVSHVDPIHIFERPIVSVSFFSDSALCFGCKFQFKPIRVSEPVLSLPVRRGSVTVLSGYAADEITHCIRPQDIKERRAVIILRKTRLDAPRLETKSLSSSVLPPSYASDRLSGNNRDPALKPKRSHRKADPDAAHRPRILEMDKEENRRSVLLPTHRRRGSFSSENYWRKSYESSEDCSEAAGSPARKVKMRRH

[24] = target: RNA demethylase ALKBH5 (Homo sapiens, UniProt Q6P6C2, K132A); assay: Binding affinity to NT-647-NHS fluorescent dye-labeled ALKBH5 K132A mutant (unknown origin) expressed in Escherichia coli BL21(DE3) using m6A-ssDNA as substrate assessed as dissociation constant incubated for 15 mins by MST assay
[25] = system: MV4-11; assay: Induction of apoptosis in human MV4-11 cells assessed as viable cells at 5 uM incubated for 48 hrs by Annexin V-FITC/PI staining based flow cytometry (reference value: 89.8 %); format: functional; settings: read-out: Activity
[26] = target: T1, RNA demethylase ALKBH5; assay: Binding affinity to NT-647-NHS fluorescent dye-labeled wild-type ALKBH5 (66 to 292 residues)(unknown origin) expressed in Escherichia coli BL21(DE3) using m6A-ssDNA as substrate assessed as dissociation constant incubated for 15 mins by MST assay
Target sequence in this assay (Q6P6C2 whole entry, the tested form may be a part): as the sequence (Q6P6C2 whole entry, the tested form may be a part) above

[27] = system: MV4-11; assay: Induction of apoptosis in human MV4-11 cells assessed as late apoptosis cells at 5 uM incubated for 48 hrs by Annexin V-FITC/PI staining based flow cytometry (reference value: 7.17 %); format: functional
[28] = Toxicity in nude mouse xenografted with human MV4-11 cells assessed as spleen damage at 10 to 40 mg/kg, ip treated every day for 14 days by H and E staining based analysis; format: organism-based; settings: in vivo, 336 h, dose 10-40 mg/kg, time 14 day
[29] = system: MV4-11; assay: Induction of apoptosis in human MV4-11 cells assessed as necrotic cells at 10 uM incubated for 48 hrs by Annexin V-FITC/PI staining based flow cytometry (reference value: 1.81 %); format: functional
[30] = target: T1, RNA demethylase ALKBH5; assay: Inhibition of ALKBH5 in human MV4-11 cells assessed as increase in m6A mRNA methylation level at 20 uM incubated for 48 hrs by LC-MS/MS analysis; format: cell-based
Target sequence in this assay (Q6P6C2 2-394 limits assumed): as the sequence (Q6P6C2 2-394 limits assumed) above

[31] = Half life in Sprague-Dawley rat at 10 mg/kg, po measured for 1 to 1440 mins by LC-MS/MS analysis; format: ADME, organism-based; settings: in vivo, time 1-1440 min
[32] = system: MOLM-13; assay: Induction of apoptosis in human MOLM-13 cells assessed as necrotic cells at 5 uM incubated for 48 hrs by Annexin V-FITC/PI staining based flow cytometry (reference value: 1.00 %); format: functional
[33] = system: MOLM-13; assay: Induction of apoptosis in human MOLM-13 cells assessed as early apoptosis cells at 5 uM incubated for 48 hrs by Annexin V-FITC/PI staining based flow cytometry (reference value: 2.72 %); format: functional
[34] = system: MOLM-13; assay: Induction of apoptosis in human MOLM-13 cells assessed as viable cells at 10 uM incubated for 48 hrs by Annexin V-FITC/PI staining based flow cytometry (reference value: 89.8 %); format: functional; settings: read-out: Activity
[35] = Toxicity in nude mouse xenografted with human MV4-11 cells assessed as body weight change at 10 to 40 mg/kg, ip treated every day for 14 days; format: organism-based; settings: in vivo, 336 h, dose 10-40 mg/kg, time 14 day

Sequence of RNA demethylase ALKBH5 (Homo sapiens, UniProt Q6P6C2, K132A) (Q6P6C2 2-394 K132A limits assumed): as the sequence (Q6P6C2 2-394 limits assumed) above, with K131A counted along it

`O=C(OCc1ccc(C(F)(F)F)cc1)c1ccc(-c2cc3ncc(C(=O)c4c(O)ccc([N+](=O)[O-])c4O)cn3n2)cc1` showed an IC50 [1] of 2.97 µM, an Activity [2] of 2.59% and an Activity [3] of 3.62%. For the same compound, the Activity [4] was “inactive”, the Activity [5] was “Active” and the Activity [6] was “Non-Toxic”. It also gave a half-life [7] of 36.7 min, an Activity [8] of 55.4% and a bioavailability [9] of 17.3%. For the same compound, the CL/F [10] was 5 mL/min/kg, the Activity [11] was “Non-Toxic” and the CL/F [12] was 28.8 mL/min/kg. For the same compound, the microsomal CLint [13] was 3.2 µL/min/mg, the IC50 [14] was 97.4 µM and the Activity [15] was “Non-Toxic”. For the same compound, the viability at 10 µM [16] was 39.9%, the Vd/F [17] was 6.18 L/kg and the Activity [18] was “Non-Toxic”. For the same compound, the IC50 [19] was 165 µM, the Activity [20] was “Non-Toxic” and the Cmax [21] was 2340 ng/mL. The half-life [22] was 13.8 min, the inhibition [23] was “Dose-Dependent Effect” and the Kd [24] was 53 µM. The viability at 5 µM [25] was 59%, the Kd [26] was 11.2 µM and the Activity [27] was 36%. The Activity [28] was “Non-Toxic”, the Activity [29] was 2.15% and the inhibition [30] was “Active”. For the same compound, the half-life [31] was 148 min, the Activity [32] was 3.37% and the Activity [33] was 2.91%. For the same compound, the viability at 10 µM [34] was 61.5% and the Activity [35] was “Non-Toxic”.
